Results on 13 compounds are retold here after ChEMBL document CHEMBL4041538, “Bioreductively activatable prodrug conjugates of phenstatin designed to target tumor hypoxia” (Bioorg Med Chem Lett, 2017).

For orientation: IC50 means the point on the concentration scale where inhibition reaches its midpoint. The low end stands for greater potency, the high end for weaker potency. Usually inhibition stands for the percentage by which the read-out fell short of the control. Low values mean a weak effect, high ones a strong effect.

A short description of data set [1]: Inhibition of bovine brain tubulin polymerization preincubated for 15 mins followed by GTP addition measured after 20 mins by Spectrophotometric method. More on the design: species or system Bos taurus.
For a further data set, the species on record is Bos taurus. Put plainly: Inhibition of [3H]colchicine binding to bovine brain tubulin at 5 uM after 10 mins by scintillation counting method relative to control.
Data set [2] in a line: Drug metabolism in pH 7.4 PBS assessed as compound hydrolysis after 24 hrs by HPLC method. The format is physicochemical. Particulars: read-out: Drug metabolism.
The target in data set [3] is T1, NADPH--cytochrome P450 reductase (P450 oxidoreductase) (Rattus norvegicus, UniProt P00388).
T1 sequence (P00388 whole entry): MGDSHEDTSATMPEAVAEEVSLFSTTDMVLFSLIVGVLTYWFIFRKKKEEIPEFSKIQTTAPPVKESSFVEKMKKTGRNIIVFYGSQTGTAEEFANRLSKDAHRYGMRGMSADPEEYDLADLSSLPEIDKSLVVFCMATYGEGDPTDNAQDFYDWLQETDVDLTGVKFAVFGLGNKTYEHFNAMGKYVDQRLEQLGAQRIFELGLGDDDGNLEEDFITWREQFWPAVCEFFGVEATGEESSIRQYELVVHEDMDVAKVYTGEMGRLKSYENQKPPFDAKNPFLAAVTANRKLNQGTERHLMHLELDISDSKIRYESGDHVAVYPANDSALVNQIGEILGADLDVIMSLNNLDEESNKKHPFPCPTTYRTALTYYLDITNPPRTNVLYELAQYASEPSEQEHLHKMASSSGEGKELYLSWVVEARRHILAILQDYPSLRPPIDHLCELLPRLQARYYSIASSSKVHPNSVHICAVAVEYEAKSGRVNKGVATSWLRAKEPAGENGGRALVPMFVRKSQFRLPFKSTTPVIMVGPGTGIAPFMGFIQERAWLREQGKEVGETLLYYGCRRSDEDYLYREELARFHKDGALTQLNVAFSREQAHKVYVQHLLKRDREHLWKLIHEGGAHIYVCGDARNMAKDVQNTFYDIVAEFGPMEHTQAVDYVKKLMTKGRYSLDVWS
Put plainly: Drug metabolism in pH 7.4 PBS assessed as rat P450 oxidoreductase-mediated compound hydrolysis preincubated for 20 mins followed by protocatechuate 3,4-dioxygenase addition to create anoxic condition and subsequent addition of P450 oxidoreductase in presence of NADPH after 24 hrs by HPLC method. The format is ADME. Particulars: rat P450 oxidoreductase with NADPH in PBS, read-out: Drug metabolism.

As to `COc1ccc(C(=O)c2cc(OC)c(OC)c(OC)c2)cc1O` [PHENSTATIN], the IC50 in data set [1] came out at 1 µM. The compound also showed an inhibition in the data set filed under Bos taurus of 85%.
The corresponding values for `COc1ccc(C(=O)c2cc(OC)c(OC)c(OC)c2)cc1OCc1ccc([N+](=O)[O-])s1` are 16 µM and 19%.
Consider `COc1ccc(C(=O)c2cc(OC)c(OC)c(OC)c2)cc1OC(C)(C)c1ccc([N+](=O)[O-])s1`, for which the IC50 in data set [1] came out at 9 µM. In addition, the inhibition in the data set listed under Bos taurus was found to be 16%. Moreover, the degraded at 24 h in data set [2] was 0%. The metabolised at 24 h in data set [3] stood at 100%.
As to `COc1ccc(C(=O)c2cc(OC)c(OC)c(OC)c2)cc1OCc1ccc([N+](=O)[O-])cc1`, in data set [1], the half-inhibitory concentration (IC50) is more than 20 µM. In the data set listed under Bos taurus, this compound showed an inhibition of 11%.
For `COc1ccc(/C=C\c2cc(OC)c(OC)c(OC)c2)cc1O` [COMBRETASTATIN A4], in data set [1], half-maximal inhibition (IC50) was put at 0.73 µM.
As to `COc1ccc(C(=O)c2cc(OC)c(OC)c(OC)c2)cc1OCc1ccc([N+](=O)[O-])o1`, the IC50 in data set [1] was found to be 15 µM. In the data set listed under Bos taurus, the inhibition was 17%.
On to `COc1ccc(C(=O)c2cc(OC)c(OC)c(OC)c2)cc1OC(C)c1ccc([N+](=O)[O-])s1` (stereo unspecified), for which, in data set [1], the IC50 is more than 20 µM. In the data set listed under Bos taurus, the inhibition was determined as 15%.
As for `COc1ccc(C(=O)c2cc(OC)c(OC)c(OC)c2)cc1OC(C)c1cnc([N+](=O)[O-])n1C` (stereo unspecified), the IC50 in data set [1] was more than 20 µM. In addition, the inhibition in the data set filed under Bos taurus was found to be 11%.
`COc1ccc(C(=O)c2cc(OC)c(OC)c(OC)c2)cc1OC(C)(C)c1ccc([N+](=O)[O-])cc1` showed an IC50 in data set [1] of more than 20 µM. The inhibition in the data set listed under Bos taurus stood at 8.8%. For the same compound, the degraded at 24 h in data set [2] stood at 0%. Further, in data set [3], the metabolised at 24 h amounted to 0%.
With `COc1ccc(C(=O)c2cc(OC)c(OC)c(OC)c2)cc1OC(C)c1ccc([N+](=O)[O-])o1` (stereo unspecified), the IC50 in data set [1] was 12 µM. Also, in the data set listed under Bos taurus, the inhibition worked out at 16%.
In data set [1], `COc1ccc(C(=O)c2cc(OC)c(OC)c(OC)c2)cc1OC(C)(C)c1ccc([N+](=O)[O-])o1` displayed an IC50 of more than 20 µM. Further, the inhibition in the data set filed under Bos taurus was 13%. Further, the degraded at 24 h in data set [2] stood at 0%. For the same compound, the metabolised at 24 h in data set [3] is 100%.
`COc1ccc(C(=O)c2cc(OC)c(OC)c(OC)c2)cc1OC(C)c1ccc([N+](=O)[O-])cc1` (stereo unspecified) had a half-inhibitory concentration (IC50) in data set [1] of more than 20 µM. For the same compound, in the data set filed under Bos taurus, the inhibition was 5.8%.
The corresponding values for `COc1ccc(C(=O)c2cc(OC)c(OC)c(OC)c2)cc1OCc1cnc([N+](=O)[O-])n1C` are more than 20 µM and 7.1%.
